Test [1] concerns auricular oedema induced by TPA in BALB/c mice. Kind of test: Inhibition test of auricular oedema induced by single application of TPA in mouse. The format is in vivo. Conditions: 1 w/v % solution applied topically to ear 1 hour before TPA, auricle thickness 6 hours after TPA, read-out: Auricular oedema inhibition rate (%). The procedure: Inhibition Test of Auricular Oedema Induced by Single Application of TPA (12-O-tetradecanoylphorbol-13-acetate) in Mouse (In Vivo Efficacy Test Based on TNF-α-Related Cutaneous Inflammation)
Auricular oedema was induced by applying 54 μmol/L TPA-acetone solution on both the inner and outer sides of the left ear of BALB/c mice (application volume of 54 μmol/L TPA-acetone solution is 10 μL for each side of the left ear (i.e. 1.08 nmol TPA/auricle)). For a non-induced group, acetone was similarly applied instead of the 54 μmol/L TPA-acetone solution. The test substance was dissolved and prepared in a 1 w/v % solution of acetone containing 10 vol % DMSO (topical administration vehicle), then the test solution was applied onto both the inner and outer sides of the left ear of the mice (application volume of this test solution is 10 μL for each side of the left ear) 1 hour before the TPA application. For a control group, the topical administration vehicle was similarly applied instead of the test substance solution. For an etanercept group, 0.2 mL of a 5 mg/mL etanercept solution was intravenously administered (1 mg/mouse) the day before TPA application and 1.5 hours before TPA application. For a human IgG (hIgG) group (etanercept control group), 0.2 mL of a 5 mg/mL hIgG solution was intravenously administered (1 mg/mouse). Auricle thickness was measured under ether anesthesia the day before TPA application and 6 hours after TPA application for evaluation of the auricular oedema inhibition effect of the test substance based on the increase in auricle thickness as an index.
The auricular oedema inhibition rate (%) of the test substance was calculated based on the following formula using (A) the average value of the increase in auricular thickness of the group administered with the test substance, (B) the average value of the increase in auricular thickness of the non-induced group, and (C) the average value of the increase in auricular thickness of the control group. […]

The target of a further test is TACE (Homo sapiens (Human), UniProt P78536). Kind of test: TACE inhibition test (in vitro). The test is classed as biochemical. As to conditions: fluorescent synthetic substrate, 37° C., 1.5 hours. The method in brief:
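Recombinant enzyme (cDNA from THP-1 cells, expressed in mammalian or insect cells) with quenched substrate Nma-Leu-Ala-Gln-Ala-Val-Arg-Ser-Ser-Lys(Dnp)-D-Arg-NH2. Incubated 1.5 h at 37 °C; fluorescence read at ex 355/em 460 nm; IC50 from inhibition rate.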

Bounds are passed on as bounds.

Data on two molecules can be found in patent US10000476B2, “Pyridone derivative, pharmaceutical containing the same and methods of use thereof” (KAKEN PHARMACEUTICAL CO., LTD., priority 2011, dated 2018).

One may read the IC50 as the concentration that gives 50% inhibition. The low end stands for inhibition by little substance, the high end for a need for much substance.

Sequence of TACE (P78536 215-824): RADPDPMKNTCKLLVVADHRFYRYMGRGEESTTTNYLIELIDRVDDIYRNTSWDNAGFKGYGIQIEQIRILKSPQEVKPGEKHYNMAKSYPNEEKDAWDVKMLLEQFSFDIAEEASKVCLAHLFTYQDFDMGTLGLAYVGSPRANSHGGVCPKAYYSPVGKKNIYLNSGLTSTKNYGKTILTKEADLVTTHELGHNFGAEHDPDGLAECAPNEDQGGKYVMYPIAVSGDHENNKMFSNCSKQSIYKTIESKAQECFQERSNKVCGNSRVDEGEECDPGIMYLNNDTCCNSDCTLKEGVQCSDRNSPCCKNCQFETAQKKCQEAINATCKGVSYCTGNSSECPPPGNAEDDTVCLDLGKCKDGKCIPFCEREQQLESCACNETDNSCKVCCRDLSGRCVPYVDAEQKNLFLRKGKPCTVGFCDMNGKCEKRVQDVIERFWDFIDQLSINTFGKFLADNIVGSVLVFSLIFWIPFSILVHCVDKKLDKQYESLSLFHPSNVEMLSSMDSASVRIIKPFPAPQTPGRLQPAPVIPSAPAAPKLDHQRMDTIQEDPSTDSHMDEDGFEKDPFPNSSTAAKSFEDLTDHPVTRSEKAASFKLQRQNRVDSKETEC

With `Cc1cc(C2(Cn3cccc(C)c3=O)NC(=O)NC2=O)ccc1OC1C=CCCC1` (stereo not shown) [Compound I-38], the inhibition in vivo at 10000 µg/mL in test [1] amounted to 41%. This molecule yielded an IC50 at TACE of less than 100 nM.
In the case of `Cc1cccn(CC2(c3ccc(OC4C=CCCC4)cc3)NC(=O)NC2=O)c1=O` (stereo not shown) [Compound I-36, 5-[4-(cyclohex-2-en-1-yloxy)phenyl]-5-[(3-methyl-2-oxopyridin-1(2H)-yl)methyl]imidazolidine-2,4-dione], the inhibition in vivo at 10000 µg/mL in test [1] stood at 58%. The same molecule returned an IC50 against TACE of less than 100 nM.
